Marks after values point to notes of the source that are not given here.
Assays:
[1] = test system: cellular DNA polymerase beta; conditions: cited from earlier work
[2] = test system: cellular DNA polymerase gamma; conditions: cited from earlier work
[3] = test system: viral reverse transcriptase; conditions: cited from earlier work
[4] = test system: mammalian DNA polymerase alpha; conditions: cited from earlier work
[5] = test system: normal helper/inducer TM3 cells; assay: Immune reactivity of normal lymphocytes: tetanus toxoid-driven activation of clone TM3; assay type: cell-based; conditions: 72 hours
Description: There was tested the effects of the various 2',3'-dideoxynucleosides on the antigen-specific and lectin-induced reactivity of normal lymphocytes in vitro (Table 2). There was used a normal clone (TM3)of tetanus-toxoid specific helper/inducer T-cells to monitor the effects of the compounds on antigen-driven activation and normal circulating lymphocytes to monitor effects on pokeweed mitogen and phytohaemagglutinin-driven activation. Concentrations of these compounds, including those that were 10- to 20-fold higher than those necessary to block the in vitro infectivity and cytopathic effect of HIV (HTLV-III/LAV) left the in vitro immune reactivity of normal lymphocytes basically intact.
^2 5 × 10^4 normal helper/inducer TM3 cells were stimulated
with tetanus toxoid (0.6 limiting flocculation units/ml) plus 10^5
irradiated (4,000 rad) autologous peripheral blood mononuclear cells (PBM
as a source of accessory cells and cultured for 72 hours in the presence
or absence of the 2',3dideoxynucleoside. After exposure to 0.5 uCi^3
Hthymidine or 1 uCi ^3 Huidine for the final 5 hours, cells were
harvested onto glass fibers and the incorporated radioactivity was
counted. Data are expressed as the arithmetic mean counts per minute
(×10^3) ± 1 standard deviation triplicate determinations.

[6] = test system: PBM (peripheral blood mononuclear cells) stimulated with phytohaemagglutinin; assay: Immune reactivity of normal lymphocytes: PBM + PHA; assay type: cell-based; conditions: 72 hours
[7] = test system: PBM (peripheral blood mononuclear cells) stimulated with pokeweed mitogen; assay: Immune reactivity of normal lymphocytes: PBM + PWM; assay type: cell-based; conditions: 72 hours
[8] = test system: HIV (HTLV-III/LAV), ATH8 cells; assay: Inhibition of cytopathic effect of HIV (HTLV-III/LAV) against ATH8 cells; assay type: cell-based, human immunodeficiency virus (HIV)
HSV-1 [9] = assay: Antiviral activity against HSV-1 (first line); assay type: cell-based; conditions: Human alphaherpesvirus 1; primary rabbit kidney cell cultures; first HSV-1 line; read-out: Minimal Inhibitory Concentration (required to reduce virus-induced cytopathogenicity by 50%)
HSV-1 [10] = assay: Antiviral activity against HSV-1 (second line); assay type: cell-based; conditions: Human alphaherpesvirus 1; primary rabbit kidney cell cultures; second HSV-1 line; read-out: Minimal Inhibitory Concentration (required to reduce virus-induced cytopathogenicity by 50%)
Vaccinia = assay: microbe, parasite or virus in culture; assay type: cell-based; conditions: Orthopoxvirus vaccinia, in Oryctolagus cuniculus, read-out: Minimal Inhibitory Concentration (required to reduce virus-induced cytopathogenicity by 50%)
[11] = test system: Vesicular Stomatitis Virus; assay: microbe, parasite or virus in culture; assay type: cell-based; conditions: HeLa, read-out: Minimal Inhibitory Concentration (required to reduce virus-induced cytopathogenicity by 50%)
Reovirus-1 = assay: Antiviral activity against Reovirus-1; assay type: cell-based; conditions: Vero cell cultures; read-out: Minimal Inhibitory Concentration (required to reduce virus-induced cytopathogenicity by 50%)
Sindbis Virus = assay: Antiviral activity against Sindbis Virus; assay type: cell-based; conditions: Vero cell cultures, read-out: Minimal Inhibitory Concentration (required to reduce virus-induced cytopathogenicity by 50%)
Source text: (§1) The antiviral activity of the dideoxynucleosides of the present invention against a variety of viruses were compared. The results, shown in Table 3, indicate that the compositions of the present invention are selectively effective against HIV virus.
(§2) ^1 Required to reduce virusinduced cytopathogenicity by 50%.
(§3) ^4 Antiviral activity measured in Vero cell cultures.

Coxsackie Virus B4 = assay: Antiviral activity against Coxsackie Virus B4; assay type: cell-based; conditions: Enterovirus B, Hela cell cultures, read-out: Minimal Inhibitory Concentration (required to reduce virus-induced cytopathogenicity by 50%)
Semliki Forest Virus = assay: Antiviral activity against Semliki Forest Virus; assay type: cell-based; conditions: Vero cell cultures, read-out: Minimal Inhibitory Concentration (required to reduce virus-induced cytopathogenicity by 50%)
Source text: as §1, §2, §3

Parainfluenza Virus-3 = assay: Antiviral activity against Parainfluenza Virus-3; assay type: cell-based; conditions: Vero; read-out: Minimal Inhibitory Concentration (required to reduce virus-induced cytopathogenicity by 50%)
Polio Virus-1 = assay: organism not typed; assay type: cell-based; conditions: HeLa, read-out: Minimal Inhibitory Concentration (required to reduce virus-induced cytopathogenicity by 50%)
HTLV-III = assay: Antiviral activity against HTLV-III; assay type: cell-based, human immunodeficiency virus (HIV); conditions: for IC50: Human immunodeficiency virus 1, ATH-8, T4+ human T cell (ATH8) cultures, read-out: Minimal Inhibitory Concentration (required to reduce virus-induced cytopathogenicity by 50%); for activity against HIV: Table 3 note
Source text: as §1, §2
^5 Antiviral activity measured in T4+ human T cell (ATH8) cultures.

DNA and RNA viruses = assay: Antiviral activity against a variety of viruses (Table 3 overall); assay type: cell-based; conditions: Table 3 note
Source text: as §1, §2

[12] = dog, in vivo
[13] = test system: HIV (HTLV-III/LAV) p24 gag protein, H9 cells; assay: Inhibition of infectivity and replication of HIV (p24 gag protein expression) in H9 cells; assay type: cell-based, human immunodeficiency virus (HIV)
[14] = 10 uM, 3H-thymidine incorporation, mean ± 1 SD, triplicate
[15] = 100 uM, 3H-thymidine incorporation, mean ± 1 SD, triplicate
[16] = 1 uM, 3H-uridine incorporation, mean ± 1 SD, triplicate
[17] = 10 uM, 3H-uridine incorporation, mean ± 1 SD, triplicate
[18] = 200 uM, 3H-uridine incorporation
[19] = 2,000 uM, 3H-uridine incorporation, mean ± 1 SD, triplicate

| Structure (SMILES) | activation of clone TM3, mean counts per minute [5, 14] | activation of clone TM3, mean counts per minute [5, 15] | activation of PBM + PHA, mean counts per minute [6, 14] | activation of PBM + PHA, mean counts per minute [6, 15] | activation of PBM + PWM, mean counts per minute [7, 14] | activation of PBM + PWM, mean counts per minute [7, 15] | IC50 (HSV-1 [9]) [µM] | IC50 (HSV-1 [10]) [µM] | IC50 (Vaccinia) [µM] | IC50 [11] [µM] | IC50 (Reovirus-1) [µM] | IC50 (Sindbis Virus) [µM] | IC50 (Coxsackie Virus B4) [µM] | IC50 (Semliki Forest Virus) [µM] | IC50 (Parainfluenza Virus-3) [µM] | IC50 (Polio Virus-1) [µM] | IC50 (HTLV-III) [µM] | other results |
| --- | --- | --- | --- | --- | --- | --- | --- | --- | --- | --- | --- | --- | --- | --- | --- | --- | --- | --- |
| Nc1ncnc2c1ncn2[C@H]1CC[C@@H](COP(=O)(O)OP(=O)(O)OP(=O)(O)O)O1 |  |  |  |  |  |  |  |  |  |  |  |  |  |  |  |  |  | inhibition of cellular DNA polymerase beta [1]: can inhibit; inhibition of cellular DNA polymerase gamma [2]: can inhibit; inhibition of viral reverse transcriptase [3]: can inhibit; inhibition of mammalian DNA polymerase alpha [4]: but not mammalian DNA polymerase alpha |
| Nc1nc2c(ncn2[C@H]2CC[C@@H](COP(=O)(O)OP(=O)(O)OP(=O)(O)O)O2)c(=O)[nH]1 |  |  |  |  |  |  |  |  |  |  |  |  |  |  |  |  |  | inhibition of cellular DNA polymerase beta [1]: can inhibit; inhibition of cellular DNA polymerase gamma [2]: can inhibit; inhibition of viral reverse transcriptase [3]: can inhibit; inhibition of mammalian DNA polymerase alpha [4]: but not mammalian DNA polymerase alpha |
| Nc1ncnc2c1ncn2[C@H]1CC[C@@H](CO)O1 [2',3'-dideoxyadenosine] | 86 ± 8 counts per minute (×10^3) | 67 ± 2 counts per minute (×10^3) | 289 ± 18 counts per minute (×10^3) | 314 ± 37 counts per minute (×10^3) | 63 ± 5 counts per minute (×10^3) | 57 ± 3 counts per minute (×10^3) | > 2000 | > 2000 | > 2000 | > 2000 | > 2000 | > 2000 | > 2000 | > 2000 | > 2000 | > 2000 | 5 | anti-retroviral activity against HIV [8]: have anti-retroviral activity against HIV; activity against HIV (HTLV-III): active against HIV; activity against the broad spectrum of DNA and RNA viruses (DNA and RNA viruses): not active; oral bioavailability ([12]; pH 7): 41.6%; conversion of orally administered ddA to ddI ([12]; po): converted almost entirely to 2',3'-dideoxyinosine (ddI) |
| Nc1ccn([C@H]2CC[C@@H](CO)O2)c(=O)n1 [2',3'-dideoxycytidine] |  |  |  |  |  |  | > 2000 | > 2000 | > 2000 | > 2000 | > 2000 | > 2000 | > 2000 | > 2000 | > 2000 | > 2000 | 0.3 | activation of clone TM3, mean counts per minute [5, 16]: 13 ± 1 counts per minute (×10^3); activation of clone TM3, mean counts per minute [5, 17]: 8 ± 1 counts per minute (×10^3); activation of PBM + PHA, mean counts per minute [6, 16]: 101 ± 1 counts per minute (×10^3); activation of PBM + PHA, mean counts per minute [6, 17]: 86 ± 3 counts per minute (×10^3); activation of PBM + PWM, mean counts per minute [7, 16]: 23 ± 3 counts per minute (×10^3); activation of PBM + PWM, mean counts per minute [7, 17]: 15 ± 3 counts per minute (×10^3); activity against HIV (HTLV-III): active against HIV; activity against the broad spectrum of DNA and RNA viruses (DNA and RNA viruses): not active |
| Nc1nc2c(ncn2[C@H]2CC[C@@H](CO)O2)c(=O)[nH]1 [2',3'-dideoxyguanosine] | 66 ± 5 counts per minute (×10^3) | 77 ± 1 counts per minute (×10^3) | 350 ± 4 counts per minute (×10^3) | 469 ± 9 counts per minute (×10^3) | 73 ± 8 counts per minute (×10^3) | 62 ± 5 counts per minute (×10^3) |  |  |  |  |  |  |  |  |  |  |  |  |
| OC[C@@H]1CC[C@H](n2cnc3c(O)ncnc32)O1 [2',3'-dideoxyinosine] | 62 ± 4 counts per minute (×10^3) | 81 ± 4 counts per minute (×10^3) | 298 ± 20 counts per minute (×10^3) | 355 ± 37 counts per minute (×10^3) | 61 ± 1 counts per minute (×10^3) | 62 ± 5 counts per minute (×10^3) |  |  |  |  |  |  |  |  |  |  |  | anti-retroviral activity against HIV [8]: have anti-retroviral activity against HIV |
| Cc1cn([C@H]2CC[C@@H](CO)O2)c(=O)[nH]c1=O [2',3'-dideoxythymidine] |  |  |  |  |  |  | > 2000 | > 2000 | > 2000 | > 2000 | > 2000 | > 2000 | > 2000 | > 2000 | > 2000 | > 2000 | 200 | activation of clone TM3, mean counts per minute [5, 18]: 9 counts per minute (×10^3); activation of clone TM3, mean counts per minute [5, 19]: 9 counts per minute (×10^3); activation of PBM + PHA, mean counts per minute [6, 18]: 86 counts per minute (×10^3); activation of PBM + PHA, mean counts per minute [6, 19]: 77 counts per minute (×10^3); activation of PBM + PWM, mean counts per minute [7, 18]: 31 counts per minute (×10^3); activation of PBM + PWM, mean counts per minute [7, 19]: 31 counts per minute (×10^3); concentration required to exert a protective effect ([8]; ATH8 cells): relatively high concentrations; capacity to nullify the cytopathic effect of the virus ([8]; day 10 of culture, ATH8 cells): lost on day 10 of the culture; concentration required to mediate an anti-viral effect (p24 gag expression) [13]: relatively higher concentrations; resumption of viral replication ([13]; day 10 of culture): allowed a resumption of viral replication by day 10 of culture |
| O=c1ccn([C@H]2CC[C@@H](CO)O2)c(=O)[nH]1 [Dideoxyuridine] |  |  |  |  |  |  | > 2000 | > 2000 | > 2000 | > 2000 | > 2000 | > 2000 | > 2000 | > 2000 | > 2000 | > 2000 | > 100 |  |

From US5616566A, “Method of inhibiting HIV replication with 2',3'-dideoxyadenosine” (The United States of America as represented by the …, priority 1993, dated 1997)
